According to PMC4807248 (The Journal of Biological Chemistry, 2016):

B1: PqsB (natural protein)
chain: MLIQAVGVNLPPSYVCLEGPLGGERPRAQGDEMLMQRLLPAVREALDEAAVKPEEIDLIVGLALSPDHLIENRDIMAPKIGHPLQKVLGANRAHVFDLTDSSLARALYVVDTLASDQGYRNVLVVRGESSQGLEVDSESGFALADGALALLCRPTGKAAFRRGALGGDPAQEWLPLSIPLNTDIRQVGDVKGHLNLPAQPGLPEAVRAGFTRLAGDFPQLNWVREEWFGQGRPDGRCLGPFELASQLRAAQRDRLDELLLISFDPFGMVVEGVTLELAGEAHA
notes: also called PqsB subunit of PqsBC

How the values were obtained:
PqsBC [1] = molecular target: T1, PqsBC (Pseudomonas aeruginosa, UniProt Q9I4X1, C129A); assay: biochemical
T1 construct: gene pqsC

PqsBC [2] = molecular target: T2, PqsBC (Pseudomonas aeruginosa, UniProt Q9I4X1, C129S); assay: biochemical
T2 construct: gene pqsC

PqsBC [3] = molecular target: T3, PqsBC (Pseudomonas aeruginosa, UniProt Q9I4X1, H269A); assay: biochemical
T3 construct: gene pqsC

PqsBC [4] = molecular target: T4, PqsBC (Pseudomonas aeruginosa, UniProt Q9I4X1, V299N); assay: biochemical
T4 construct: gene pqsC

PqsC^C129A = molecular target: T5, PqsC^C129A (P. aeruginosa PAO1, UniProt Q9I4X1 2-348, C129A); assay: crystal structure; PqsBC^C129A crystallised in 25% PEG 3350, 0.1 M Tris pH 8.3, 0.2 M NaCl; 2.0 Å; four copies of PqsB and four of PqsC in the asymmetric unit; conditions: both partners purified
T5 construct: also called PqsC subunit of PqsBC^C129A
T5 sequence: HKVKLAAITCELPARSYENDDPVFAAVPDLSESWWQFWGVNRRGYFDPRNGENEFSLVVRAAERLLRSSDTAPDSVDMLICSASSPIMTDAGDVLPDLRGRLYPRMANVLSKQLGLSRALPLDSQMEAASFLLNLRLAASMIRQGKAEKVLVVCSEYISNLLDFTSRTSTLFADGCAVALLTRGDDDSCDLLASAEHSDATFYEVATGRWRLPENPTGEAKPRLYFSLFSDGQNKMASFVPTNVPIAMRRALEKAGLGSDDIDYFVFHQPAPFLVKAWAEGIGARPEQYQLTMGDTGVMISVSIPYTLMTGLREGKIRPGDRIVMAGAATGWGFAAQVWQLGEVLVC

T1 sequence (Q9I4X1 whole entry, stated change not applied, one chain of several): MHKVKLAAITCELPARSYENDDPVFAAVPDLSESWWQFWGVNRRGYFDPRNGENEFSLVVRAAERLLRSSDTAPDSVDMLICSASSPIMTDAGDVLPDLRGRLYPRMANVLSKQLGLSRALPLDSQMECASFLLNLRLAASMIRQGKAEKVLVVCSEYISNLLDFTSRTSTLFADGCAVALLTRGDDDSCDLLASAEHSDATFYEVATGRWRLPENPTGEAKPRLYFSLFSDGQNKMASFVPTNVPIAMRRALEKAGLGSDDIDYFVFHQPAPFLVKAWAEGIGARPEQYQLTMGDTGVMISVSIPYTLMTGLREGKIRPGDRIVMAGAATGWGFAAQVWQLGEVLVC
T2 sequence (Q9I4X1 whole entry, stated change not applied, one chain of several): as above
T4 sequence (Q9I4X1 whole entry, stated change not applied, one chain of several): as above
T3 sequence (Q9I4X1 whole entry, stated change not applied, one chain of several): as above

Row | Molecule | Kd (PqsBC [1]) [µM] | Kd (PqsBC [2]) [µM] | Kd (PqsBC [3]) [µM] | Kd (PqsBC [4]) [µM] | binding result (PqsC^C129A)
1 | Nc1ccccc1C(=O)CC(=O)O [2-aminobenzoylacetate] | 330 ± 30 | 411 ± 43 | 198 ± 11 | > 1000 | –
2 | CC(=O)c1ccccc1N [2-aminoacetophenone] | 158 ± 12 | 170 ± 10 | 117 ± 6 | > 1000 | –
3 | B1 | – | – | – | – | binds
